Experimental data: US11712468B2, “CD70 combination therapy” (Argenx BV, priority 2018, dated 2023)
Like-named read-outs stand apart in the source and are kept apart here.

Experiments:
[1] = test system: NOMO-1 AML cells; assay: AML cell killing with NK cells, Annexin V viable cell count at 72 h (IC50 and Chou-Talalay synergy); assay type: cell-based; details: Homo sapiens
Description: (§1) Initially, cells from each AML cell line were treated with decitabine, cusatuzumab or venetoclax alone to determine the IC50 for each treatment. 10^5 AML cells were treated with a concentration range of cusatuzumab (0.1, 1.0 and 10 μg/ml), venetoclax (0.5 and 200 nM), decitabine (0.01-1 μM) or vehicle in the presence of CFSE-labelled NK cells derived from healthy individuals (ratio 1:1). The assay was performed in triplicate.
(§2) To determine synergy, a constant combination ratio experiment was carried out at equipotency ratio (IC501/IC502, or IC501/IC502/IC503) so that each drug contributed equally to cell killing. Combination drug dose responses were assessed in two technical replicates for every dose/dose combination as previously described (Riether et al., Sci Transl Med (2015) 7(298); 298ra119.
(§3) NOMO-1, MOLM-13, NB-4 or MV4-11 AML cell lines were treated with vehicle, decitabine, cusatuzumab or venetoclax alone, a double combination of venetoclax and decitabine, decitabine and cusatuzumab, or venetoclax and cusatuzumab, or a triple combination of decitabine, cusatuzumab and venetoclax. All combinations were tested at three high and three low concentrations (above and below the identified IC50s) and in a constant ratio. Cells were cultured in the presence of CFSE-labeled NK cells (ratio 1:1). Viable AML cell numbers were assessed 72 hours later by Annexin V staining, and the effect of drug treatment was calculated as the ratio of surviving cells to vehicle-treated cells.
(§4) The Combination Index (CI) was calculated and plotted against Fraction affected (Fa) using CompuSyn software. The resultant plot of the combination index (CI) against fraction affected (Fa) for all combinations is shown in FIG. 1, with the individual combinations shown in FIGS. 2A-2D.
(§5) Fa values of 0, 0.5, and 1 correspond to 0, 50, and 100% killed cells. A CI of <1, 1, >1 represents synergism, additivity, and antagonism, respectively. IC50s indicates Fa values reached for the combination of respective IC50 concentrations. The principles and advantages of the Fa-CI plot method of assessing synergism are provided in, for example, Chou T C, Cancer Research (2010) 70(2); 440-6 and Zhao et al. Front Biosci (Elite Ed). (2010) 2; 241-249 (each of which is incorporated herein by reference in its entirety).

[2] = test system: MV4-11 AML cells; assay: as above; assay type: cell-based; details: Homo sapiens
Description: as §1, §2, §3, §4, §5

[3] = test system: MOLM-13 AML cells; assay: as above; assay type: cell-based; details: Homo sapiens
Description: as §1, §2, §3, §4, §5

[4] = test system: NB4 AML cells; assay: as above; assay type: cell-based
Description: as §1, §2, §3, §4, §5

[5] = test system: CD70 expression; assay: CD70 mRNA and protein expression in AML cells; assay type: cell-based; details: AML cells (MOLM-13, NOMO-1) in the presence of venetoclax
Description: FIG. 9: CD70 mRNA expression (as percentage of housekeeping gene) following treatment with vehicle (Veh) or venetoclax (Ven) for 24 or 48 hrs.
FIG. 10: CD70 protein and mRNA expression by MOLM-13 and NOMO-1 cells in the presence (gray bars) and absence (black bars) of venetoclax. Significance was determined using a Student's t-test. MFI=mean fluorescence intensity. *** P<0.001.
The effect of venetoclax on expression of CD70 at both the mRNA and protein level was assessed.

[6] = cited from earlier work
[7] = test system: CD27 signalling; details: cited from earlier work
[8] = test system: CD70-expressing tumour cells; details: Silence et al. (2014); cited from earlier work
[9] = target: T1, CD70 (Homo sapiens, UniProt P32970); details: Silence et al. (2014); cited from earlier work
T1 sequence (P32970 1-193): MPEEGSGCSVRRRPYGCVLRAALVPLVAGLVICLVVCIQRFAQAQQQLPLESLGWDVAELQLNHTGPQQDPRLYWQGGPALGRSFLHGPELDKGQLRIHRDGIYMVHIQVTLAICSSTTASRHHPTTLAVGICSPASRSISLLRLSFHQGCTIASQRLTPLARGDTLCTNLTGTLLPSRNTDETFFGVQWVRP

Which IC50 ([1]; NOMO-1) does the source give for `Nc1ncn([C@H]2C[C@H](O)[C@@H](CO)O2)c(=O)n1` [decitabine] here?
Its IC50 is 0.001 nM.

What about the IC50 ([2]; MV4-11) of the same molecule?
The IC50 was 2.36 nM.

What about the IC50 ([3]; MOLM-13) of the same molecule?
Its IC50 is 0.01 nM.

And the IC50 [4]?
The IC50 was 4.8 nM.

For `CC1(C)CCC(CN2CCN(c3ccc(C(=O)NS(=O)(=O)c4ccc(NCC5CCOCC5)c([N+](=O)[O-])c4)c(Oc4cnc5[nH]ccc5c4)c3)CC2)=C(c2ccc(Cl)cc2)C1` [venetoclax, 4-(4-{[2-(4-chlorophenyl)-4,4dimethylcyclohex-1-en-1-yl]methyl}piperazin-1-yl)-N-({3-nitro-4-[(tetrahydro-2H-pyran-4ylmethyl)amino]phenyl}sulfonyl)-2-(1H-pyrrolo[2,3-b]pyridin-5-yloxy)benzamide], which “CD70 expression (mRNA and protein)” value [5] is on record?
Its value is “up-regulated”.

And the IC50 ([1]; NOMO-1, monotherapy, NK cells ratio 1:1, read-out: IC50)?
The IC50 was 3.4 nM.

And the IC50 ([2]; MV4-11, monotherapy, NK cells ratio 1:1, read-out: IC50)?
The IC50 was 5 nM.

And the IC50 ([3]; MOLM-13, monotherapy, NK cells ratio 1:1, read-out: IC50)?
Its IC50 is 0.42 nM.

And the IC50 ([4]; NB4, monotherapy, NK cells ratio 1:1, read-out: IC50)?
Its IC50 is 17.3 nM.

And the Aqueous solubility [6]?
Its Aqueous solubility is “very low aqueous solubility”.

B1: cusatuzumab: IgG1 anti-CD70 antibody, ADCC-enhanced humanized monoclonal; VH SEQ ID NO: 4, VL SEQ ID NO: 8 (antibody, V domains shown)
VH: EVQLVESGGGLVQPGGSLRLSCAASGFTFSVYYMNWVRQAPGKGLEWVSDINNEGGTTYYADSVKGRFTISRDNSKNSLYLQMNSLRAEDTAVYYCARDAGYSNHVPIFDSWGQGTLVTVSS
VL: QAVVTQEPSLTVSPGGTVTLTCGLKSGSVTSDNFPTWYQQTPGQAPRLLIYNTNTRHSGVPDRFSGSILGNKAALTITGAQADDEAEYFCALFISNPSVEFGGGTQLTVLG
For B1, which “CD70-induced CD27 signalling” value [7] is on record?
The value was “inhibit CD70-induced CD27 signalling”.

And the “Lysis of CD70-expressing tumour cells via ADCC and CDC” value [8]?
Its value is “lyse CD70-expressing tumour cells”.

What about the “Interaction of CD70 with CD27” value [9] of the same molecule?
The value was “inhibit the interaction of CD70 with its receptor CD27”.
